# Values quoted from earlier work, collected in patent US20230087756A1, “SYSTEMS AND METHODS FOR […] OF BREWED BEVERAGES AND ACTIVE INGREDIENTS” (RECEPTOR HOLDINGS, INC., priority 2020, published 2023).
smiles,measurement,setting,value
"CCCCCc1cc(O)c2c(c1)OC(C)(C)[C@@H]1CCC(C)=C[C@@H]21 [THC, (−)-trans-delta-9-tetrahydrocannabinol]",duration of appetite stimulant effect,after administration,≥ 24 h
same,peak effect,after most forms of oral administration,2 to 4 h
same,absorbed,after single oral doses,90-95%
same,duration of action for psychoactive effects,oral administration,4 to 6 h
